Consider one compound from patent US20220016114A1, “Heart Rate Decreasing Agent” (FURUKAWA RESEARCH OFFICE CO., LTD., priority 2018, published 2022).

In the assay the test system is heart rate of a person. In words: Variation in heart rate before and after oral ingestion of orotic acid tablets, at rest and after drinking. The assay is classed as in vivo, human. The following applies: for Symptoms (4 to 5 hours after orotic acid ingestion): placebo: languor. The procedure:
Tablets consisting of orotic acid were orally ingested and the variation in heart rate was measured before and after oral ingestion. The test subject was a person. Although they were told at their medical checkup that their cholesterol was slightly high, they had not taken any medication and had no preexisting condition. Their blood pressure was in the normal range, and they had never been diagnosed with a blood pressure problem in the past. Their heart rate was slightly high at about 89 to 92 beats/min, and rarely fell below 86 beats/min even at rest. Since the heart rate quickly increases due to exercise and tension or the like, the measurement day was spent as much as possible doing desk work and the like, and the measurement was made under stable conditions after sitting on a chair for at least several minutes. They were drinking 2 cans of beer and 2 to 3 double glasses of shochu daily. Their heart rate after drinking was increasing to about 105 to 115 beats/min (120 beats/min in rare cases), and they were feeling drunk and mild palpitation. They were also feeling sleepy on some days. The test subject ingested a tablet containing 200 mg of orotic acid by oral administration, and the measurement of their heart rate was started.

Entries after “also recorded” stand apart in the source; their conditions may differ. Bounds are passed on as bounds.

Consider `O=C(O)c1cc(=O)[nH]c(=O)[nH]1` [Orotic acid, 1,2,3,6-tetrahydro-2,6-dioxo-4-pyrimidinecarboxylic acid], for which, where the note is “conclusion from Table 1, person, 200 mg oral”, the “Overall effect on heart rate and on daily palpitation and fatigue” value was “a decrease in heart rate was clearly observed; also recorded: improved the palpitation and fatigue that were felt on a daily basis”. Where the note is “person, 200 mg oral”, the “Heart rate after stabilisation (later than 4 hours after ingestion)” value is reported as “in the 70s beats/min to the lower 80s beats/min”, the “Time after ingestion from which heart rate gradually decreased” value is “about 2 hours” and the “Symptoms (4 to 5 hours after orotic acid ingestion)” value is “Clear head; also recorded: No languor”. Besides, under “person, 200 mg oral, after usual beer and shochu, placebo: slight drunkenness, mild palpitation, drowsiness”, the “Symptoms (after drinking)” value is given as “felt almost no drunkenness or palpitation”. Besides, the “Heart rate 1 to 2 hours after drinking” value (person, 200 mg oral, usual amount of beer and shochu after the decrease in heart rate, placebo 105 to 115 beats/min) is recorded as 85 to 103 beats/min. For the same compound, the “Symptoms (4 to 5 hours after orotic acid ingestion)” value (person, 200 mg oral, listed as orotic acid) is “their head was more refreshed and no longer felt lethargic”. For the same compound, the “Heart rate 4 hours after ingestion” value (person, 200 mg oral, usual heart rate about 89 to 92 beats/min) is recorded as ≤ 80 beats/min. Moreover, the “Heart rate 4 to 5 hours after orotic acid ingestion” value (person, tablet containing 200 mg orotic acid orally, sitting at rest, placebo 88 to 93 beats/min) is recorded as 77 to 82 beats/min.
